Assay type in all cases: toxicity, cell-based
One series concerns U2OS. The series can be described thus: Incucyte cell viability with U2OS. Particulars: human, 10 µM, compound concentration 10 uM.
The subject of a further series is Fibroblast. The series can be described thus: Incucyte cell viability with human fibroblast. The note with it: 10 µM, compound concentration 10 uM.
In the next series the test system is HEK-293T. Description: Incucyte cell viability with HEK293T. The note with it: human, 10 µM, compound concentration 10 uM.
[1] abbreviates: 0 h, replicate number 1, timepoint 0 hours.
The mark [2] stands for this setting: 0 h, replicate number 2, timepoint 0 hours.
Where [3] appears, read: 6 h, replicate number 1, timepoint 6 hours.
[4] abbreviates: 6 h, replicate number 2, timepoint 6 hours.
Setting [5] is: 12 h, replicate number 1, timepoint 12 hours.
[6] abbreviates: 12 h, replicate number 2, timepoint 12 hours.
Where [7] appears, read: 18 h, replicate number 1, timepoint 18 hours.
Setting [8] is: 18 h, replicate number 2, timepoint 18 hours.
The mark [9] stands for this setting: 24 h, replicate number 1, timepoint 24 hours.
[10] abbreviates: 24 h, replicate number 2, timepoint 24 hours.

Eleven molecules from ChEMBL document CHEMBL5058564, “EUbOPEN Chemogenomics Library 2 (Incucyte)” (2022) can be followed below.

Molecules are shown by their SMILES.
Further: unitless GR value; below 1 slowed growth and below 0 cell loss.

For `O=c1ccc2ccc(OCCCCN3CCN(c4cccc5sccc45)CC3)cc2[nH]1` [BREXPIPRAZOLE], the “Growth Rate” value is given as 0.42 in the series on U2OS (setting [1]); -0.19 with U2OS (setting [2]); 0.98 in the series on U2OS (setting [3]); -0.55 in the series with Fibroblast (setting [3]); 0.52 in the series with Fibroblast (setting [4]); 0.1 in the series with Fibroblast (setting [5]). The “Growth Rate” value in the series with Fibroblast (setting [6]) was 0.53; in the series with Fibroblast (setting [7]), 0.08; with Fibroblast (setting [8]), 0.81; in the series on Fibroblast (setting [9]), 0.3; with Fibroblast (setting [10]) it was 0.76; in the series on HEK-293T (setting [3]), -0.63. Moreover, the entries for the “Growth Rate” value in the series with HEK-293T (setting [5]), in the series with HEK-293T (setting [7]) and with HEK-293T (setting [9]) were -0.43, -0.32 and -0.26, respectively.

On to `O=C1NC(NC23CC4CC(CC(C4)C2)C3)=N/C1=C\c1ccc2ncsc2c1`, for which the “Growth Rate” value in the series on U2OS (setting [1]) was -0.86; with U2OS (setting [2]), -1; in the series on U2OS (setting [7]), 0.56; with U2OS (setting [8]), 0.88; in the series on U2OS (setting [9]), 0.62; in the series with U2OS (setting [10]), 0.7. In addition, the “Growth Rate” value is -0.85 in the series with Fibroblast (setting [1]); 0.36 in the series with Fibroblast (setting [2]); -0.13 in the series with HEK-293T (setting [1]); -0.17 with HEK-293T (setting [2]); 0.28 in the series with HEK-293T (setting [5]); 0.24 in the series on HEK-293T (setting [6]). Further, the “Growth Rate” value turned out to be 0.03 in the series on HEK-293T (setting [7]), 0.09 in the series on HEK-293T (setting [8]), 0.01 in the series with HEK-293T (setting [9]) and 0.06 in the series on HEK-293T (setting [10]).

For the molecule `N[C@](CC1c2ccccc2Oc2ccccc21)(C(=O)O)[C@H]1C[C@@H]1C(=O)O`, the “Growth Rate” value with U2OS (setting [2]) came to 0.8; in the series on U2OS (setting [6]), 0.92; in the series on U2OS (setting [7]), 0.9; in the series with Fibroblast (setting [1]), 0.29; in the series with Fibroblast (setting [4]), 0.73; in the series on Fibroblast (setting [6]), 0.93. Moreover, the “Growth Rate” value with Fibroblast (setting [7]) is on record as 0.9; in the series on Fibroblast (setting [8]), 0.82; with Fibroblast (setting [9]), 0.68; in the series on Fibroblast (setting [10]), 0.88; with HEK-293T (setting [1]) it was 0.78; in the series on HEK-293T (setting [2]), -1. The “Growth Rate” value with HEK-293T (setting [3]) came to 0.42; in the series on HEK-293T (setting [5]) it was 0.5; in the series with HEK-293T (setting [7]), 0.57; in the series with HEK-293T (setting [9]) it was 0.69.

`Cc1ccc(F)cc1C(=O)Nc1ccc(C(=O)N2Cc3cccn3Cc3ccccc32)c(Cl)c1` [LIXIVAPTAN]: the “Growth Rate” value was -0.09 in the series on U2OS (setting [1]); 0.32 in the series with U2OS (setting [3]); 0.89 in the series on U2OS (setting [4]); 0.89 in the series with U2OS (setting [8]); 0.9 in the series with U2OS (setting [9]); 0.94 with U2OS (setting [10]). Also, the “Growth Rate” value in the series on Fibroblast (setting [1]) was -0.13; in the series on Fibroblast (setting [3]), 0.63; in the series with Fibroblast (setting [4]), 0.2; in the series with Fibroblast (setting [6]) it was 0.59; in the series on Fibroblast (setting [8]), 0.75; in the series with Fibroblast (setting [9]) it was 0.45. Moreover, the “Growth Rate” value in the series on HEK-293T (setting [1]) was determined as 0.91.

For the molecule `CC(C)Oc1ccc(F)c(-c2cnc(N)c(C(=O)Nc3cnccc3N3CCC[C@@H](C(=O)O)C3)n2)c1`, the “Growth Rate” value is reported as -1 in the series with U2OS (setting [2]); 0.84 with U2OS (setting [8]); 0.73 in the series with U2OS (setting [10]); -0.81 with Fibroblast (setting [1]); 0.06 with Fibroblast (setting [2]); 0.29 in the series with HEK-293T (setting [1]). The “Growth Rate” value with HEK-293T (setting [2]) is reported as 0.07; with HEK-293T (setting [3]) it was 0.66; in the series with HEK-293T (setting [4]) it was 0.25; in the series on HEK-293T (setting [5]), 0.11; with HEK-293T (setting [6]) it was 0.14; with HEK-293T (setting [7]), 0.21. Also, the “Growth Rate” value in the series on HEK-293T (setting [8]) is 0.13; in the series on HEK-293T (setting [9]), 0.25; in the series on HEK-293T (setting [10]), 0.33.

For `COc1c(C)cc(NC(=O)c2nn(Cc3ccc(F)cc3)c3c2CN(C(=O)c2ccc[nH]2)C[C@]3(C)C(N)=O)cc1C`, the “Growth Rate” value is recorded as -0.69 with U2OS (setting [1]); -0.16 in the series with U2OS (setting [2]); 0.56 in the series on U2OS (setting [3]); 0.73 in the series on U2OS (setting [4]); 0.56 in the series on U2OS (setting [5]); 0.68 in the series with U2OS (setting [6]). The “Growth Rate” value is on record as 0.61 in the series with U2OS (setting [7]); 0.66 with U2OS (setting [8]); 0.61 in the series with U2OS (setting [9]); 0.67 with U2OS (setting [10]); 0.8 in the series with Fibroblast (setting [1]); 0.51 in the series on Fibroblast (setting [2]). Further, the “Growth Rate” value with Fibroblast (setting [3]) is recorded as -0.71; with Fibroblast (setting [4]), 0.46; in the series with Fibroblast (setting [5]), -0.33; in the series with Fibroblast (setting [6]) it was 0.15; in the series with Fibroblast (setting [7]), -0.18; in the series with Fibroblast (setting [8]) it was 0.32. In addition, the “Growth Rate” value with Fibroblast (setting [9]) is recorded as -0.31; with Fibroblast (setting [10]), 0.29; with HEK-293T (setting [1]) it was 0.79; with HEK-293T (setting [3]), 0.35; in the series on HEK-293T (setting [5]), 0.13; with HEK-293T (setting [7]) it was 0.11. The “Growth Rate” value with HEK-293T (setting [9]) is 0.15.

On to `Cc1cc(-c2ccc3c(c2)CC[C@H]3N2CC3(CCN(C(=O)Cc4cn5cc(C)sc5n4)CC3)C2)ncn1` [PF-5190457], for which the “Growth Rate” value in the series with U2OS (setting [2]) is on record as -0.98; in the series on U2OS (setting [6]), 0.99; in the series on U2OS (setting [7]), 0.94; in the series with Fibroblast (setting [2]) it was 0.62; in the series on Fibroblast (setting [3]), -0.34; with Fibroblast (setting [5]), 0.22. The “Growth Rate” value with Fibroblast (setting [6]) was 0.88; in the series on Fibroblast (setting [7]), 0.37; with Fibroblast (setting [9]), 0.57; with HEK-293T (setting [2]), 0.77; with HEK-293T (setting [7]), 0.98.

Take `NCCc1c[nH]c2ccc(C(N)=O)cc12.O=C(O)/C=C\C(=O)O`: the “Growth Rate” value in the series with U2OS (setting [1]) is given as -0.1; in the series with U2OS (setting [2]), 0.34; in the series with U2OS (setting [3]), 0.87; in the series with U2OS (setting [7]), 0.89; in the series with U2OS (setting [9]), 0.83; in the series with Fibroblast (setting [1]) it was 0.89. Besides, the “Growth Rate” value is recorded as -0.08 with Fibroblast (setting [2]); 0.95 in the series on Fibroblast (setting [8]); 0.4 in the series on HEK-293T (setting [1]); -0.18 in the series on HEK-293T (setting [2]); 0.61 in the series on HEK-293T (setting [3]); 0.96 in the series on HEK-293T (setting [5]). Moreover, the “Growth Rate” value in the series on HEK-293T (setting [7]) and in the series on HEK-293T (setting [9]) was 0.9 in each case.

Take `COc1ccc2[nH]cc(CCNC(C)=O)c2c1` [MELATONIN]: the “Growth Rate” value with U2OS (setting [2]) was 0.55; in the series on U2OS (setting [8]) it was 0.85; with U2OS (setting [10]), 0.97; in the series on Fibroblast (setting [1]) it was 0.91; with Fibroblast (setting [2]), 0.06; with HEK-293T (setting [1]), 0.52. The “Growth Rate” value with HEK-293T (setting [2]) is listed as 0.8; in the series with HEK-293T (setting [3]), 0.93; in the series on HEK-293T (setting [9]), 0.94.

For `O=C(O)CCC/C=C\C[C@H]1C(=O)C[C@@H](O)[C@@H]1/C=C/[C@@H](O)CCc1ccccc1`, the “Growth Rate” value with U2OS (setting [1]) came to 0.49; with U2OS (setting [3]), 0.41; with U2OS (setting [5]), 0.52; in the series with U2OS (setting [7]) it was 0.77; with U2OS (setting [9]), 0.97; with Fibroblast (setting [1]) it was 0.15. In addition, the “Growth Rate” value with Fibroblast (setting [2]) is reported as -0.3; with Fibroblast (setting [3]), 0; in the series on Fibroblast (setting [5]), 0.4; in the series on Fibroblast (setting [7]), 0.74; with Fibroblast (setting [9]), 0.66; in the series on HEK-293T (setting [2]) it was -0.05. The “Growth Rate” value with HEK-293T (setting [3]) amounted to 0.8; with HEK-293T (setting [5]), 0.68; in the series on HEK-293T (setting [7]), 1; in the series on HEK-293T (setting [9]) it was 0.89.

As for `NC(=O)c1cccc(-c2cc(Nc3ccc(OC(F)(F)F)cc3)ncn2)c1`, the “Growth Rate” value in the series on U2OS (setting [5]) was 0.98; with U2OS (setting [8]), 0.93; in the series on U2OS (setting [9]) it was 0.94; in the series with Fibroblast (setting [3]) it was -0.84; in the series on Fibroblast (setting [4]), 0.58; with Fibroblast (setting [5]) it was -0.48. The “Growth Rate” value is given as 0.37 with Fibroblast (setting [6]); -0.35 with Fibroblast (setting [7]); 0.53 in the series with Fibroblast (setting [8]); -0.05 in the series with Fibroblast (setting [9]); 0.46 with Fibroblast (setting [10]); -0.43 in the series on HEK-293T (setting [3]). The “Growth Rate” value in the series with HEK-293T (setting [4]) is reported as 0.03; in the series with HEK-293T (setting [5]), 0.03; in the series with HEK-293T (setting [6]) it was 0.25; in the series with HEK-293T (setting [7]), 0.18; with HEK-293T (setting [8]), 0.3; with HEK-293T (setting [9]), 0.26. Besides, in the series on HEK-293T (setting [10]), the “Growth Rate” value is 0.48.
